Measurements from a melting point compilation (Tetko et al.; mined from patent text by program, amines drawn as free bases though some values may be those of a salt).

First: COc1cccc(C(=O)Nc2ccc(N3CCN(Cc4cccc(C#N)c4)CC3)cc2)c1OCc1ccc(C(F)(F)F)cc1
Second: COc1ccc(CN(C)CCCc2ccc(NC(=O)c3cccc4c(=O)cc(-c5ccccc5)[nH]c34)cc2)cc1OC
The melting point of the first is lower: 118 to 120 °C for the first, 180 °C for the second.

First: COc1cc(OC)nc(C(=O)NS(=O)(=O)CC(C)C)n1
Second: COC(=O)c1cc(C)cc(Br)c1NS(=O)(=O)c1ccc(OC)cc1
The melting point of the first is higher: 128 to 130 °C for the first, 113 °C for the second.

Going from O=c1ccc2nc3ccccc3sc-2c1Cl to Oc1nnc2ccc3ccccc3n12, the melting point falls from 221 °C to 134 °C.

First: O=C(CCCCCCNS(=O)(=O)c1ccc(C(=O)Nc2ccc(Cl)c(-c3ccccn3)c2)c(Cl)c1)NO
Second: O=C(O)CCc1cc2cc(Cl)ccc2n1S(=O)(=O)c1ccc(Oc2ccccc2)cc1
The melting point of the first is higher: 159 °C for the first, 70 to 75 °C for the second.

Compared with COc1ccc(-c2c(C(=O)CC(C)C)c(CSc3nccn3C)nc3cc(OC)c(OC)cc23)cc1OC, CCCOc1ccc(-c2c(C(=O)OC)c(C(=O)OC)c(O)c3cc(OC)c(OC)c(OC)c23)cc1OCCC is lower in melting point: 152 to 153 °C for the first, 132 °C for the second.

Compared with CC(=O)c1cnn(O)c1-c1ccc(C(=O)O)cc1C, CC(=O)Oc1nc(-c2ccc(C(=O)O)cc2)sc1C is lower in melting point: greater than 250 °C for the first, 227 to 230 °C for the second.

First: CC(=O)Nc1cc([N+](=O)[O-])ccc1OCC(C)O (stereo unspecified)
Second: COC(=O)C(C)Oc1cc(C)ccc1C=O (stereo unspecified)
The melting point of the first is higher: 123 °C for the first, 65 to 68 °C for the second.

First: N=C(Nc1ccc(CN(Cc2ccccc2)Cc2ccccc2)cc1)c1cccs1
Second: Fc1ccccc1C1CCN(Cc2ccccc2)CCN1Cc1ccccc1 (stereo unspecified)
The melting point of the first is higher: 127 to 128 °C for the first, 82 to 83 °C for the second.

First: CCN(CC)C(=O)Nc1cc(-c2c(-c3cccc(C)c3)nc3cccnn23)ccn1
Second: CC(C)(C)c1ccc(C(=O)Nc2cn3cc(-c4ccsc4)ccc3n2)cc1
The melting point of the first is lower: 166 to 167 °C for the first, 261 to 263 °C for the second.

First: Cc1ccc(C(=O)N(C(C)C)C(C)C)c(F)c1C1=NC(C)(C(C)C)C(=O)N1 (stereo unspecified)
Second: Cc1cc(C(F)(F)C(F)(F)F)ccc1NC(=O)c1cccc(I)c1C(=O)NC(C)(C)CS(C)(=O)=O
The melting point of the first is higher: 205 to 210 °C for the first, 143 to 144 °C for the second.

First: CC(C)Cn1c(C(F)(F)F)nc2ccc(-n3c(=O)cc(C(F)(F)F)n(C)c3=O)cc21
Second: O=C(O)CC1c2cc(C(F)(F)F)ccc2C(=O)N1CC(F)(F)F (racemic)
The melting point of the first is lower: 156 to 159 °C for the first, 202 to 204 °C for the second.

First: CCc1cccc2c1S(=O)(=O)c1ccccc1O2
Second: Cc1cccc2c1C(=O)/C(=C(\N)c1ccccc1)S2
The melting point of the first is lower: 101 to 103 °C for the first, 198 to 200 °C for the second.

First: CNC(=O)ON=C1N=C(c2ccc(Cl)cc2)C(C)(C)S1
Second: COC(=O)NN=C1CCCCC1=Cc1ccc(Cl)cc1
The melting point of the first is lower: 147 to 149 °C for the first, 160 to 162 °C for the second.

Compared with CCOP(=O)(OCC)c1cccc(OCc2ccc3ccccc3c2)c1, CCOC(=O)C(Cc1ccc(OCc2ccccc2)cc1)OS(C)(=O)=O (stereo unspecified) is higher in melting point: 55 to 57 °C for the first, 81 to 83 °C for the second.

Compared with NC(=S)CCn1nc(-c2ccccc2)ccc1=O, CC(C)n1nc(-c2cnc(N)nc2-c2ccccc2Br)ccc1=O is higher in melting point: 173 to 175 °C for the first, 203 to 205 °C for the second.

Compared with O=C(c1ccccc1)C1CCN(CCN(C(=O)c2ccc([N+](=O)[O-])cc2)c2cccnc2)CC1, O=CNc1ccnc(C(=O)Nc2ccc(Oc3ccccc3)cc2)c1O is higher in melting point: 134 to 136 °C for the first, 208 °C for the second.

Compared with COc1ccc(CC2CCC3=C(C2)CC(CO)C(=O)N3)cc1 (stereo unspecified), COc1cc2c(c(OC)c1)C(Cc1ccc(-c3ccccc3OC)cc1)N(C(=O)OC(C)(C)C)CC2 (stereo unspecified) is lower in melting point: 165 to 168 °C for the first, 126 to 128 °C for the second.

Compared with CC(C)COC(=O)Sc1ccc(-c2ccc(C(CCl)NC(=O)c3c(F)cccc3F)cc2)cc1 (racemic), Cc1ccc(-c2ncc(O)nc2-c2ccc(C)cc2)cc1 is higher in melting point: 171 to 173 °C for the first, 250 to 254 °C for the second.

First: CC(=O)OCCc1ccc2c(c1)C(=O)c1ccccc1CO2
Second: CC(O)(Cc1ccccc1)CN1CCC2(CC1)CSC1=C(O2)c2ccccc2C(=O)C1=O (stereo unspecified)
The melting point of the first is lower: 55 to 58 °C for the first, 186 to 187 °C for the second.

First: Cc1ncc2c(n1)-c1ccc(Cl)cc1C(c1ccccc1Cl)=[N+]([O-])C2
Second: Cn1nc(-c2ccccc2C(F)(F)F)nc1-c1ccccc1Cl
The melting point of the first is higher: 215 to 216 °C for the first, 90 to 92 °C for the second.

Compared with O=C(O)c1nc2n(c(=O)c1OCc1ccccc1)CCOC2, C[C@H](NC(=O)OCc1ccccc1)C(=O)N1CCC[C@H]1C(=O)NC1CCCC1 is lower in melting point: 171 °C for the first, 118 to 119 °C for the second.

First: COc1c(Cl)c(C=O)c(Cl)c(OC)c1OC
Second: O=Cc1c(Cl)ccc(F)c1Cl
The melting point of the first is higher: 76 °C for the first, 63 to 65 °C for the second.

First: Nc1ccc2c(=O)n3c(nc2c1)C(=Cc1ccc(O)c(O)c1)CC3
Second: Cc1c(F)c(F)cc2c1c(=O)c(C(=O)O)cn2-c1ccc(F)cc1
The melting point of the first is higher: 263 to 265 °C for the first, 255 to 257 °C for the second.

Compared with CN(C)NC(=O)NCCCCC1CCSS1 (stereo unspecified), COC(=O)C1=C[C@@H](OC(C)C)[C@H](NC(C)=O)[C@@H](CCO)C1 is higher in melting point: 60 to 61 °C for the first, 118 to 119 °C for the second.

First: Cc1cncn1-c1cc(NC(=O)OC(C)(C)C)cc(C(F)(F)F)c1
Second: CC(C)(C)OC(=O)NCC(Cl)c1ccco1 (stereo unspecified)
The melting point of the first is higher: 169 to 171 °C for the first, 75 to 77 °C for the second.

Compared with COc1cc2c(cc1O)CCN(Cc1cccc(C)c1)C2, CCOC(=O)c1cnc(Nc2ccccc2OC)[nH]c1=O is higher in melting point: 128 to 129 °C for the first, 217 to 219 °C for the second.

Compared with CCc1cc2c(cc1N)N1CCCN=C1S2, CCc1cc(N)c(N)cc1CC is lower in melting point: 210 °C for the first, 114 to 116 °C for the second.

Compared with Cc1cc(C)c(C(O)c2ccc(-n3ccnc3)c(Cl)c2)c(C)c1 (stereo unspecified), COC(=O)c1ccc2cc(-c3cccc(OC)c3)oc2c1 is lower in melting point: 156 to 157 °C for the first, 150 to 152 °C for the second.

Compared with O=C(Nc1ccc(Br)cn1)Nc1cccc2c1C1CCCCN1C2=O (stereo unspecified), O=C(O)/C=C\C(=O)NCC(=O)N1c2ccccc2N(Cc2ccccc2)C(=O)[C@H]2CCC[C@H]21 (relative stereo) is lower in melting point: 225 °C for the first, 207 to 209 °C for the second.

First: CCNC(=O)NCCSCC(=O)NC/C=C\COc1cccc(CN2CCCCC2)c1
Second: CN(C)C(=O)C1(CCCN2CCCCC2)CC=CCC1c1ccccc1 (stereo unspecified)
The melting point of the first is lower: 90.2 to 91.2 °C for the first, 105 to 106 °C for the second.

First: C[Si](C)(C)c1ccc2cc(C(=O)Nc3ccc(N4CC(O)C4)nc3)n(Cc3cccc(F)c3)c2c1
Second: COc1ccc(-c2cn(-c3nc(C)c(C(=O)NCc4ccccc4)s3)nn2)cc1
The melting point of the first is higher: 188 to 189 °C for the first, 168 to 171 °C for the second.

First: CNC(=O)Nc1cc(OC)ccc1Br
Second: CCCOc1oc(=O)c2cc(NC(=O)NCC)ccc2c1Cl
The melting point of the first is lower: 164 to 166 °C for the first, 189 to 191 °C for the second.

First: CC(C)C1Sc2ccccc2NC(=O)C1N (stereo unspecified)
Second: CC(NC(=O)OCc1ccccc1)P(C)(=O)OCc1ccccc1 (stereo unspecified)
The melting point of the first is higher: 180 to 183 °C for the first, 108 to 110 °C for the second.

First: COc1ccc(-n2nc(C(F)(F)F)cc2-c2ccc(S(C)(=O)=O)cc2)cc1F
Second: COC(=O)Cn1c(=O)[nH]c(=O)n(-c2cc(Oc3ccc(C(F)(F)F)c(Cl)c3)ccc2[N+](=O)[O-])c1=O
The melting point of the first is higher: 178 to 180 °C for the first, 166 to 167 °C for the second.

First: CCSC1CCC2C3CCC4=CC(=O)C=CC4(C)C3(F)C(O)CC12C (stereo unspecified)
Second: CC1CCN(c2c(F)cc3c(=O)c(C(=O)O)cn4c3c2CCC4C)CC1 (stereo unspecified)
The melting point of the first is lower: 196 to 197 °C for the first, 266 to 268 °C for the second.

Compared with Cc1cccc2c1NC(=O)C(CCCN1CCN(c3ccc(F)cc3)CC1)S2 (stereo unspecified), Cc1ccccc1/C=C/c1nc(COc2ccc(CCCCn3ccnc3CCO)cc2)co1 is lower in melting point: 116 to 117 °C for the first, 91 to 93 °C for the second.

First: COC(=O)C(C)N(C(=O)CO)c1c(C)csc1C (stereo unspecified)
Second: CCOC(=O)C1CCC(C(=O)OCC)N1C(=O)C(N)Cc1c[nH]c2ccccc12 (stereo unspecified)
The melting point of the first is lower: 69 to 70 °C for the first, 144 to 149 °C for the second.

First: C=CCOCCc1ccc(OCC(O)CNC(C)C)cc1 (stereo unspecified)
Second: CCCc1c(OCc2ccc(Cc3nnn[nH]3)cc2)ccc(C(C)=O)c1O
The melting point of the first is lower: 52 to 53 °C for the first, 184 to 187 °C for the second.

First: Cc1c(-c2ccc(OCc3ccccc3)cc2)n(Cc2ccc(OCCN3[C@H](C)CCC[C@@H]3C)cc2)c2ccc(OCc3ccccc3)cc12
Second: CCCCCCC(C)(C)c1cc(OCc2ccccc2)c(C2=C(C(C)(C)C(N)=O)CCC(C)C2)c(OCc2ccccc2)c1 (stereo unspecified)
The melting point of the first is lower: 106 to 107 °C for the first, 113 to 114 °C for the second.

First: CCC(=O)NC1C=CC(CO)C1 (stereo unspecified)
Second: O=C(CC(=O)C1CC1)c1ccc2snnc2c1
The melting point of the first is lower: 67 to 68 °C for the first, 142 to 144 °C for the second.

First: Cn1cc(-c2cc(-c3ccc4[nH]ncc4c3)ccn2)n(-c2ccc(C(C)(C)C#N)cc2)c1=O
Second: CCOC1=C(C#N)C(c2ccccc2)=C2C(=O)N(CC)C(c3ccccc3)=C12
The melting point of the first is lower: 165 °C for the first, 200 to 202 °C for the second.

First: CCOC(=O)N1Cc2ccnnc2C(NN=C(C)C)C1 (stereo unspecified)
Second: CCS(=O)c1cc(C(=O)NCC2CCCN2CC2CC2)c(OC)cc1N (stereo unspecified)
The melting point of the first is higher: 171 to 174 °C for the first, 158 to 162 °C for the second.

First: Cc1oc(-c2ccco2)nc1/C=C/c1ccc(C=O)cc1
Second: Cc1ccsc1C(=O)Nc1ccc(I)cc1
The melting point of the first is higher: 209 to 210 °C for the first, 141 to 142 °C for the second.

First: CCCCCCCCC1(CCCCCCCC)c2cc(Br)ccc2-c2ccc(Br)cc21
Second: CCCCOc1ccc(-n2cc(C(=O)OCC)cn2)cc1C#N
The melting point of the first is lower: 52 to 54 °C for the first, 132 °C for the second.

Compared with O=c1c2cn[nH]c2nc2n1CCS2, N#CN=C1NCCN1Cc1cccnc1 is lower in melting point: greater than 300 °C for the first, 126 to 128 °C for the second.

First: COc1ccc(Nc2nc(NC3CCCCCC3)cc(N3CCC(O)CC3)n2)cc1Cl
Second: Cc1c(F)c(N2CCCC(n3ccnn3)C2)c(F)c2c1c(=O)c(C(=O)O)cn2C1CC1 (stereo unspecified)
The melting point of the first is lower: 84 to 86 °C for the first, 227 to 228 °C for the second.

First: COc1cc(-c2cnc3[nH]cc(C(=O)C(C)(C)C)c3n2)cc(OC)c1OC
Second: CCOC(=O)Cc1coc2c(OC)ccc(C(=O)Cc3c(Cl)cncc3Cl)c12
The melting point of the first is higher: 240 to 241 °C for the first, 105 to 115 °C for the second.

First: NCC1Cc2cccc3cccc1c23 (stereo unspecified)
Second: Nc1cccc2cc(-c3nccs3)[nH]c12
The melting point of the first is higher: greater than 250 °C for the first, 173 to 174 °C for the second.

Compared with Cn1c(CC#N)ccc1C(=O)c1ccc(Cl)cc1Cl, O=C(O)c1c([N+](=O)[O-])ccc2c1OCCO2 is higher in melting point: 129 to 130 °C for the first, 188 °C for the second.

Compared with CNC(=S)C1(c2ccccn2)CCCCS1 (stereo unspecified), CC(=O)N[C@H]1C(n2cc(Cl)cnc2=O)O[C@H](COC(C)=O)[C@@H](OC(C)=O)[C@@H]1OC(C)=O (stereo partly specified) is higher in melting point: 153 °C for the first, 165 to 167 °C for the second.

For CCSC=C1C(=O)OC(C)(C)OC1=O, the melting point was 52 to 54 °C.
